1 molecule from patent US20240327787A1, “CULTURE MEDIUM, COATING MATRIX AND METHOD FOR EXPANDING MIDBRAIN DOPAMINERGIC PROGENITOR CELLS” (NUWACELL BIOTECHNOLOGIES CO., LTD., priority 2022, published 2024) can be followed below.

This experiment concerns imDAPs. The experiment in a line: qRT-PCR analysis of imDAP-specific markers during expansion. The class given is cell-based, human. The conditions noted are these: 3 μM CHIR99021 vs 0 and 1.25 μM; 5 days expansion. The protocol:
1. For qRT-PCR analysis of mRNA gene expression, RNA should be harvested from at least 2×10^6 cells.
2. Harvest cells, add 350 μl of buffer RLT+1% (vol/vol) β-mercaptoethanol to the well, transfer the lysate to a 1.5 ml tube, and put it immediately on ice.
3. Perform RNA extraction using the Tiangen Kit (DP430), and follow the manufacturer's protocol ‘Purification of total RNA from animal and human cells’.
4. When the RNA extraction was completed, determine the RNA concentration using a Nanodrop instrument.
5. Perform the first-strand cDNA synthesis reaction with lug of RNA using the HiScript™ II Q RT SuperMIX for qPCR (+gDNA wiper) Kit (Vazyme, #R223-01) for RT-qPCR. Follow the manufacturer's ‘First-Strand cDNA Synthesis’ protocol. This reaction would yield a 20μl product.
6. […]
8. Analyze the samples by running a quantitative PCR on the LightCycler 480 instrument using a 40× cycle two-step protocol with a 60° C., 60 sec annealing/elongation step and a 95° C., 30 sec denaturation step. […]
imDAPs were produced according to the method described in CN201910169525.0. […] When imDAPs reach 100% confluence (4-5 days), cells were passaged enzymatically with 1× TrypLE, centrifuged at 250 g for 5 minutes, counted and replaced on new VTN-coated plates (1 μg/cm^2) at a density of 1×10^5 cells/cm^2 in the expansion medium. imDAPs were continuously expanded for 6 passages. […]

The structures appear in SMILES notation.

`Cc1cnc(-c2cnc(NCCNc3ccc(C#N)cn3)nc2-c2ccc(Cl)cc2Cl)[nH]1` [CHIR99021]: the “mDAP marker expression (EN1, LMX1A, FOXA2), qRT-PCR (FIG. 1C)” value is “allowed better maintenance of mDAP marker expression”.
